Assay results from US12030878B2 (BRISTOL-MYERS SQUIBB COMPANY, priority 2017, dated 2024).

Legend:
Assay type in all cases: cell-based
human TLR9 = target: T1, human TLR9 (Homo sapiens, UniProt Q9NR96); test: TLR9 inhibition reporter assay (HEK-Blue SEAP); details: HEK-Blue cells overexpressing human TLR9, stimulated with ODN2006 5 nM, 22 hour incubation
T1 construct: host or cells: HEK-Blue cells
T1 sequence (Q9NR96 26-1032): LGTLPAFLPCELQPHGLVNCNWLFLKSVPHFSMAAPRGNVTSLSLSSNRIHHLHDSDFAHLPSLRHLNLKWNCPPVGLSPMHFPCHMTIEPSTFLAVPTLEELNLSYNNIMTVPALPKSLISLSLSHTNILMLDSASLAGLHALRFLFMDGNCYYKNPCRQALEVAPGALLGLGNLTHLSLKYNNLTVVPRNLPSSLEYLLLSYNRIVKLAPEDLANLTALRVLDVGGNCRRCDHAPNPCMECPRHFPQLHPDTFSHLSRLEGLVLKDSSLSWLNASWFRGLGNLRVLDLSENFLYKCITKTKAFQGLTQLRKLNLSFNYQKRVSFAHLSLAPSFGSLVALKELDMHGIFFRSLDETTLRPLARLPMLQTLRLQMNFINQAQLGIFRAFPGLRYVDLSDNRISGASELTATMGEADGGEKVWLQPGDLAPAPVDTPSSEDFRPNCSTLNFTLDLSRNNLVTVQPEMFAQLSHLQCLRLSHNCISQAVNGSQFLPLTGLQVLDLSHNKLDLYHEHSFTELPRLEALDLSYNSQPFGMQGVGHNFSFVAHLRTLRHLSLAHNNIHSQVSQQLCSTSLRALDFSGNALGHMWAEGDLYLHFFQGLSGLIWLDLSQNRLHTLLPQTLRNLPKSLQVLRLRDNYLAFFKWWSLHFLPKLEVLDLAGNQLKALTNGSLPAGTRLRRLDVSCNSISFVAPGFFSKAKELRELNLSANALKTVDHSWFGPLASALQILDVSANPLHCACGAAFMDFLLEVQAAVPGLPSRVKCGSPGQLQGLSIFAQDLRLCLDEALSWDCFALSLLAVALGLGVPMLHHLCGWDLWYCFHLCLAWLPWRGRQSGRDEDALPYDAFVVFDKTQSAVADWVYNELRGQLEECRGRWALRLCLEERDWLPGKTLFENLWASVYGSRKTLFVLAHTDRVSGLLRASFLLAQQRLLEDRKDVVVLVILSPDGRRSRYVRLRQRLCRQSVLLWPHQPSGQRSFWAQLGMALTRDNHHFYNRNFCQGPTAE
Description: (§1) TLR7/8/9 Inhibition Reporter Assays
(§2) HEK-Blue™-cells (Invivogen) overexpressing human TLR7, TLR8 or TLR9 receptors were used for screening inhibitors of these receptors using an inducible SEAP (secreted embryonic alkaline phosphatase) reporter gene under the control of the IFN-β minimal promoter fused to five NF-κB and AP-1-binding sites. Briefly, cells are seeded into Greiner 384 well plates (15000 cells per well for TLR7, 20.000 for TLR8 and 25,000 for TLR9) and then treated with test compounds in DMSO to yield a final dose response concentration range of 0.05 nM-50 μM. After a 30 minute compound pre-treatment at room temperature, the cells are then stimulated with a TLR7 ligand (gardiquimod at a final concentration of 7.5 μM), TLR8 ligand (R848 at a final concentration of 15.9 μM) or TLR9 ligand (ODN2006 at a final concentration of 5 nM) to activate NF-κB and AP-1 which induce the production of SEAP. After a 22 hour incubation at 37° C., 5% CO2, SEAP levels are determined with the addition of HEK-Blue™ Detection reagent (Invivogen), a cell culture medium that allows for detection of SEAP, according to manufacturer's specifications. The percent inhibition is determined as the % reduction in the HEK-Blue signal present in wells treated with agonist plus DMSO alone compared to wells treated with a known inhibitor.

human TLR8 = target: T2, human TLR8 (Homo sapiens, UniProt Q9NR97); test: TLR8 inhibition reporter assay (HEK-Blue SEAP); details: HEK-Blue cells overexpressing human TLR8, stimulated with R848 15.9 μM, 22 hour incubation
T2 construct: host or cells: HEK-Blue cells
T2 sequence (Q9NR97 27-1041): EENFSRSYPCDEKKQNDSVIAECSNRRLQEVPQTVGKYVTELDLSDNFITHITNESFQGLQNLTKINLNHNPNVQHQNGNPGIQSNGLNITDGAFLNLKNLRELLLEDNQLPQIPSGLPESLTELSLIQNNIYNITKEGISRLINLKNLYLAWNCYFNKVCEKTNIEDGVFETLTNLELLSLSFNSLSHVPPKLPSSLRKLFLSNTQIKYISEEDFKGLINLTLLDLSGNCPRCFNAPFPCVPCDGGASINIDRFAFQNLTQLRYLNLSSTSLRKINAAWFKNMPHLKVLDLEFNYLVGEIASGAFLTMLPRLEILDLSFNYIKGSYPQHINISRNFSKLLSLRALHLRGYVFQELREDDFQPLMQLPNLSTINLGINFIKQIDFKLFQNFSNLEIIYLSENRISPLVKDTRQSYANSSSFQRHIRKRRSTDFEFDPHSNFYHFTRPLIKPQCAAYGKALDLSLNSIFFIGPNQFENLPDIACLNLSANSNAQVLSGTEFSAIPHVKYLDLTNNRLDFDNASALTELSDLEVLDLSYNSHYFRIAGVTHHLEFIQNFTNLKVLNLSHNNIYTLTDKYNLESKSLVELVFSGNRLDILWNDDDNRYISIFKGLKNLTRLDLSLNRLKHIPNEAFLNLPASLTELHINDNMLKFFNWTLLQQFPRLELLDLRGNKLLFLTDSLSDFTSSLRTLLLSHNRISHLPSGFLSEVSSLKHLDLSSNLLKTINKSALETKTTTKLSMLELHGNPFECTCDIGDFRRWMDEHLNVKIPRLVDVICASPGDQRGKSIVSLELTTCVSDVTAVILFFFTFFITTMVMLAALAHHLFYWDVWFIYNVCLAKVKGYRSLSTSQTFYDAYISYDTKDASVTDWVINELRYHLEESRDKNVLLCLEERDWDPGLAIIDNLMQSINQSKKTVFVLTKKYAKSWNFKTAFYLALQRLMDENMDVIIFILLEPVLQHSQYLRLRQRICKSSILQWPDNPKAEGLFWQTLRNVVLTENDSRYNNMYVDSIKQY
Description: as §1, §2

human TLR7 = target: T3, human TLR7 (Homo sapiens, UniProt Q9NYK1); test: TLR7 inhibition reporter assay (HEK-Blue SEAP); details: HEK-Blue cells overexpressing human TLR7, stimulated with gardiquimod 7.5 μM, 22 hour incubation
T3 construct: host or cells: HEK-Blue cells
T3 sequence (Q9NYK1 27-1049): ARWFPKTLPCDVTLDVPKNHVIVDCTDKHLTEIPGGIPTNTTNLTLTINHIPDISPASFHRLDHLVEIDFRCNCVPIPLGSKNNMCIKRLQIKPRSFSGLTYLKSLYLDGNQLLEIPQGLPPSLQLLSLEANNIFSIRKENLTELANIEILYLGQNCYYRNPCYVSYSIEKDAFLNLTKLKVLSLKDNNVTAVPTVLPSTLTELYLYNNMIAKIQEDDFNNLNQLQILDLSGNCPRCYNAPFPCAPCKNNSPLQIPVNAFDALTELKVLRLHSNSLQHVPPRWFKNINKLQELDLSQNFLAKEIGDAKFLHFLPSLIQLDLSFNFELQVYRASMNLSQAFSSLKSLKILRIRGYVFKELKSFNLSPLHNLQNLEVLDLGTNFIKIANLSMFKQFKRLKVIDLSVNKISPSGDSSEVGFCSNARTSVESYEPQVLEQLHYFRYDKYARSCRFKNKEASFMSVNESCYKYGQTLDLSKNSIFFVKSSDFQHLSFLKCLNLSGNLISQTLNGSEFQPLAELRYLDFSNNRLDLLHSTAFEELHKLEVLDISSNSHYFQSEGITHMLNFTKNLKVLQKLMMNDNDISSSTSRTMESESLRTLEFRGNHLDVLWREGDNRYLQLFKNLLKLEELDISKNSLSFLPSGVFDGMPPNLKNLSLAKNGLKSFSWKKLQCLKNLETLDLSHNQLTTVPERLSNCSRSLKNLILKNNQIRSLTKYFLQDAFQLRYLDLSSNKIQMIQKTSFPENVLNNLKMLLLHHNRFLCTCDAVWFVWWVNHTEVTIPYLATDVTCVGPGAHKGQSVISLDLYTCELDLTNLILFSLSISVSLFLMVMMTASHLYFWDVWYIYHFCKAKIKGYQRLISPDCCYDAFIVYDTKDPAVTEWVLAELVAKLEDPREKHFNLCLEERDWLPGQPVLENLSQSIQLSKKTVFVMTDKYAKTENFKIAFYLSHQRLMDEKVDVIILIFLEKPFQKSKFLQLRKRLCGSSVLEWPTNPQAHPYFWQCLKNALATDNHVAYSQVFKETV
Description: as §1, §2

IC50 (human TLR9) [nM] | IC50 (human TLR8) [nM] | IC50 (human TLR7) [nM] | Structure (SMILES)
10600 | 2.4 | 5.6 | Cc1cc(-c2[nH]c3ccc(OCC4CCN(C(C)C)CC4)cc3c2C(C)C)cn(C)c1=O [Example 36, 5-(3-isopropyl-5-((1-isopropylpiperidin-4-yl)methoxy)-1H-indol-2-yl)-1,3-dimethylpyridin-2(1H)-one]
> 50000 | 2.6 | 19.3 | Cc1c(-c2[nH]c3ccc(OCC4CCN(C5COC5)CC4)cc3c2C(C)C)cn(C)c(=O)c1C [Example 51, 5-(3-isopropyl-5-((1-(oxetan-3-yl)piperidin-4-yl)methoxy)-1H-indol-2-yl)-1,3,4-trimethylpyridin-2(1H)-one]
774 | 50.8 | 1030 | CCc1c(-c2ccnc(C)c2)[nH]c2ccc(OCCN3CCCC3)cc12 [Example 192, 3-ethyl-2-(2-methylpyridin-4-yl)-5-(2-(pyrrolidin-1-yl)ethoxy)-H-indole]
625 | 186 | 427 | Cc1cc(-c2[nH]c3ccc(OCC(=O)N4CC5(CCNCC5)C4)cc3c2C(C)C)ccn1 [Example 141, 2-((3-isopropyl-2-(2-methylpyridin-4-yl)-1H-indol-5-yl)oxy)-1-(2,7-diazaspiro[3.5]nonan-2-yl)ethan-1-one]
1350 | 2.9 | 2.1 | Cc1cc(-c2[nH]c3ccc(OC4CCN(CC(=O)N(C)C)CC4)cc3c2C(C)C)cn2ncnc12 [Example 85, 2-(4-((3-isopropyl-2-(8-methyl-[1,2,4]triazolo[1,5-a]pyridin-6-yl)-1H-indol-5-yl)oxy)piperidin-1-yl)-N,N-dimethylacetamide]
18700 | 11 | 26.4 | Cc1cc(-c2[nH]c3ccc(OCCN4CCC(F)(F)CC4)cc3c2C(C)C)cn2ncnc12 [Example 3, 6-(5-(2-(4,4-difluoropiperidin-1-yl)ethoxy)-3-isopropyl-1H-indol-2-yl)-8-methyl-[1,2,4]triazolo[1,5-a]pyridine]
346 | 9.8 | 2.6 | Cc1cc(-c2[nH]c3ccc(OCC4CCN(C(=O)CN(C)C)CC4)cc3c2C(C)C)cc(C)n1 [Example 96, 2-(dimethylamino)-1-(4-(((2-(2,6-dimethylpyridin-4-yl)-3-isopropyl-1H-indol-5-yl)oxy)methyl)piperidin-1-yl)ethan-1-one]
37300 | 3.3 | 8.1 | Cc1cc(-c2[nH]c3ccc(OCCN4CCOCC4)cc3c2C(C)C)cn2ncnc12 [Example 5, 4-(2-((3-isopropyl-2-(8-methyl-[1,2,4]triazolo[1,5-a]pyridin-6-yl)-1H-indol-5-yl)oxy)ethyl)morpholine]
1910 | 7 | 8.7 | Cc1cc(-c2[nH]c3ccc(O[C@@H]4CCNC4)cc3c2C(C)C)ccn1 [Example 157, (R)-3-isopropyl-2-(2-methylpyridin-4-yl)-5-(pyrrolidin-3-yloxy)-1H-indole]
5300 | 54.6 | 51.9 | Cc1cc(-c2[nH]c3ccc(OC4CCC(OC5CCNCC5)CC4)cc3c2C(C)C)ccn1 (stereo not drawn) [Example 184, 3-isopropyl-2-(2-methylpyridin-4-yl)-5-((4-(piperidin-4-yloxy)cyclohexyl)oxy)-1H-indole]
663 | 1.5 | 10.5 | COCCN1CCC(Oc2ccc3[nH]c(-c4cc(C)nc(C)c4)c(C(C)C)c3c2)CC1 [Example 75, 2-(2,6-dimethylpyridin-4-yl)-3-isopropyl-5-((1-(2-methoxyethyl)piperidin-4-yl)oxy)-1H-indole]
3520 | 13.9 | 6.6 | Cc1cc(-c2[nH]c3ccc(O[C@H]4CCCNC4)cc3c2C(C)C)cn(C)c1=O [Example 8, (S)-5-(3-isopropyl-5-(piperidin-3-yloxy)-1H-indol-2-yl)-1,3-dimethylpyridin-2(1H)-one]
4380 | 2.8 | 0.4 | Cc1cc(-c2[nH]c3ccc(OCC4CCN(CC(=O)N(C)C)CC4)cc3c2C(C)C)cn2ncnc12 [Example 86, 2-(4-(((3-isopropyl-2-(8-methyl-[1,2,4]triazolo[1,5-a]pyridin-6-yl)-1H-indol-5-yl)oxy)methyl)piperidin-1-yl)-N,N-dimethylacetamide]
